# Results taken from US20160045687A1, “NASAL ADMINISTRATION” (OPTINOSE AS, priority 2013, published 2016).
# Counter-ions that a name gives are not always drawn. Like-named read-outs stand apart in the source and are kept apart here.
# How the values were obtained:
# [1] = cited from earlier work
# [2] = test system: episodic migraine; details: continuous carbon dioxide infusion; cited from earlier work
# [3] = test system: cultured rat trigeminal ganglion cells; details: carbon dioxide treatment of cultures under isohydric conditions; cited from earlier work
# [4] = test system: post-surgical recalcitrant CRS without polyps; assay: Example #11: placebo controlled study of fluticasone with Breath Powered liquid device; type: in vivo, human; details: 12 weeks
# Experimental: Using the same drug-device combination product as Example #10, a small placebo controlled study (N=20) was performed in patients with post-surgical recalcitrant CRS without polyps, producing clinically significant improvements on both objective measures and subjective symptoms.
# [5] = test system: chronic rhinosinusitis (CRS) with nasal polyps; assay: Example #10: 3-month placebo controlled study of fluticasone with Breath Powered liquid device; type: in vivo, human
# [6] = Fluticasone bioavailability at higher Breath Powered doses; type: in vivo, human; details: 400 ug or 800 ug twice daily as compared to 200 ug daily conventionally
# [7] = test system: single migraine attack; assay: Example #1: headache relief after 16 mg intranasal Breath Powered sumatriptan vs 100 mg oral sumatriptan; type: in vivo, human
# Text: The purpose of this study was to study the onset of headache relief following a dose of sumatriptan. The study population included 436 subjects.
# Headache relief is defined as a reduction from moderate (grade 2) or severe (grade 3) to none (grade 0) or mild (grade 1) pain.
# [8] = test system: migraine headaches; assay: Examples #4/#7: double-blind crossover head-to-head study, Breath Powered sumatriptan vs 100 mg tablet, blinded pooled data; type: in vivo, human; details: 16 mg nasal with placebo tablet; scenario inferred from blinded data
# Experimental: The study is a cross-over design where each patient enrolled will treat headaches with each of the treatments. Specifically, patients will treat up to 5 headaches with a treatment and then cross over to treat up to 5 headaches with the other. With each headache, the patient uses the device and takes a tablet, only one of which will be active. From data on over 400 headaches, as yet unblinded, the results obtained at the 30 min timepoint (headache relief 30 minutes after taking medication) for moderate or severe headaches is 54%.
# One set of data include blinded head-to-head (H2H) results. They generally show a high response rate In blinded data, i.e., a reduction from severe/moderate migraine or mild or none.
# [9] = Example #3: sumatriptan PK in nitroglycerin (GTN)-induced migraine vs healthy subjects; details: human, in vivo, Breath Powered device
structure (smiles),measurement,setting,value
"CN1C[C@H](C(=O)N[C@]2(C)O[C@@]3(O)[C@@H]4CCCN4C(=O)[C@H](Cc4ccccc4)N3C2=O)C[C@@H]2c3cccc4[nH]cc(c34)C[C@H]21 [DHE, dihydroergotamine mesylate]",bioavailability,[1]; administered intranasally,~40%
same,bioavailability,[1]; given orally,less than 1%
O=C=O [carbon dioxide],2-hour pain free response,[2],25.0%
same,effect on CGRP secretion,[3],"significantly repressed the stimulatory effects of KCI, capsaicin, and nitric oxide on CGRP secretion"
C[C@@H]1C[C@H]2[C@@H]3C[C@H](F)C4=CC(=O)C=C[C@]4(C)[C@@]3(F)[C@@H](O)C[C@]2(C)[C@@]1(O)C(=O)SCF [fluticasone],endoscopy score for edema (median scores),[4],−4.0
same,tolerability,"[5]; 400 μg b.i.d., 3 months",well tolerated
same,subjects with complete elimination of the polyps,"[5]; 400 μg b.i.d., after 3 months",~20%
same,proportion of subjects with improvement in summed polyp score,[5]; 4 weeks,22%
same,proportion of subjects with improvement in summed polyp score,[5]; 8 weeks,43%
same,proportion of subjects with improvement in summed polyp score,[5]; 12 weeks,57%
same,change in polyp score,[5]; after 12 weeks,−0.98
same,summed polyp score,"[5]; after 12 weeks, baseline 2.8",1.8
same,bioavailability,[6],no significantly greater bioavailability
CNS(=O)(=O)Cc1ccc2[nH]cc(CCN(C)C)c2c1 [sumatriptan],response rate (headache relief) at 30 minutes,[7]; 16 mg of sumatriptan in the Breath Powered device and oral tablet placebo,67%
same,response rate (headache relief) at 30 minutes,[7]; 100 mg of sumatriptan orally with the placebo device,39%
same,suggested response rate at 30 minutes,[8],70%
same,bioavailability,"[9]; other: intranasal powder, 7.5 mg delivered to the side of the migraine during a GTN attack in migraineurs",27%
same,Cmax,"[9]; other: intranasal, 7.5 mg",11 ng/mL
CN(C)CCc1c[nH]c2ccc(C[C@H]3COC(=O)N3)cc12 [zolmitriptan],nasal fraction of the total absorption,[1]; conventional nasal spray,approximately 30%
